From article PMC7408562, “The Interaction of Temozolomide with Blood Components Suggests the Potential Use of Human Serum Albumin as a Biomimetic Carrier for the Drug” (Biomolecules, 2020) come the findings set out here.

This experiment addresses T1, human serum albumin (HSA) (Homo sapiens, UniProt P02768).
T1 construct: gene ALB
Kind of experiment: intrinsic tryptophan fluorescence quenching titration (water, […] °C; also pH […] phosphate buffer), supported by delayed TMZ hydrolysis. The experiment is classed as binding.

What is called pKd is the Kd on a negative log10 scale, so that one unit is a factor of ten. Higher therefore signals a low Kd.

pKd: −log10 of the molar value.

T1 sequence (P02768 25-609): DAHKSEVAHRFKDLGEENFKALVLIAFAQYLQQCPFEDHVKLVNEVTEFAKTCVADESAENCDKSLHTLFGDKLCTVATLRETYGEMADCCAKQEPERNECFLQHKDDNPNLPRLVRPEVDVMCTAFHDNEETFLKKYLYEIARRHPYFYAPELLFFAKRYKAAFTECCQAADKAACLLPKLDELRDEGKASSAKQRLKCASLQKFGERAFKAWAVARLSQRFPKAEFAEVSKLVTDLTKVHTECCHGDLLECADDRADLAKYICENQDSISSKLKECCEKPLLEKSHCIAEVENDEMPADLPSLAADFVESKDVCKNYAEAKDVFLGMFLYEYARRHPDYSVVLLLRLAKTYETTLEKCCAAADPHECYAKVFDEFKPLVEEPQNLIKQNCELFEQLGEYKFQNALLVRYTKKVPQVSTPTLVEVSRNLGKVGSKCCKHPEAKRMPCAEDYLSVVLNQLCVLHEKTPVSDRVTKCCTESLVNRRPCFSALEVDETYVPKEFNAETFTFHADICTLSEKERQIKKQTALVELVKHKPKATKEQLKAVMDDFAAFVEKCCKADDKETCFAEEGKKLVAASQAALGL

As to `Cn1nnc2c(C(N)=O)ncn2c1=O` [TMZ, Temozolomide], the pKd was ~3.70.
